Assay results as given in patent US20070191493A1, “Use of n-alkanols as activators of the cftr channel” (priority 2003, published 2007).
pEC50: −log10 of the molar value.

Assays:
CFTR channel [1] = molecular target: T1, CFTR channel (Homo sapiens, UniProt P13569); assay: 125I radioactive iodide efflux in CHO-CFTR(+) cells; format: cell-based; set-up: expressed in transfected cells; host or cells: CHO (Chinese hamster ovary) cells, CHO-CFTR(+); settings: for order of activation of CFTR by n-alkanols: 1 mM, 125I efflux or patch-clamp; for activation of CFTR (125I efflux), in words: n-alkanols 1 mM, FSK 1 μM, A23187 2 μM, α-GA 10 and 100 μM; for effect of inhibitor on activated 125I efflux: CHO-CFTR(+) cells stimulated by octan-1-ol 1 mM, FSK 1 μM or both, glibenclamide 100 μM, H-89 30 μM, PKC inhibitor
T1 sequence (P13569 whole entry): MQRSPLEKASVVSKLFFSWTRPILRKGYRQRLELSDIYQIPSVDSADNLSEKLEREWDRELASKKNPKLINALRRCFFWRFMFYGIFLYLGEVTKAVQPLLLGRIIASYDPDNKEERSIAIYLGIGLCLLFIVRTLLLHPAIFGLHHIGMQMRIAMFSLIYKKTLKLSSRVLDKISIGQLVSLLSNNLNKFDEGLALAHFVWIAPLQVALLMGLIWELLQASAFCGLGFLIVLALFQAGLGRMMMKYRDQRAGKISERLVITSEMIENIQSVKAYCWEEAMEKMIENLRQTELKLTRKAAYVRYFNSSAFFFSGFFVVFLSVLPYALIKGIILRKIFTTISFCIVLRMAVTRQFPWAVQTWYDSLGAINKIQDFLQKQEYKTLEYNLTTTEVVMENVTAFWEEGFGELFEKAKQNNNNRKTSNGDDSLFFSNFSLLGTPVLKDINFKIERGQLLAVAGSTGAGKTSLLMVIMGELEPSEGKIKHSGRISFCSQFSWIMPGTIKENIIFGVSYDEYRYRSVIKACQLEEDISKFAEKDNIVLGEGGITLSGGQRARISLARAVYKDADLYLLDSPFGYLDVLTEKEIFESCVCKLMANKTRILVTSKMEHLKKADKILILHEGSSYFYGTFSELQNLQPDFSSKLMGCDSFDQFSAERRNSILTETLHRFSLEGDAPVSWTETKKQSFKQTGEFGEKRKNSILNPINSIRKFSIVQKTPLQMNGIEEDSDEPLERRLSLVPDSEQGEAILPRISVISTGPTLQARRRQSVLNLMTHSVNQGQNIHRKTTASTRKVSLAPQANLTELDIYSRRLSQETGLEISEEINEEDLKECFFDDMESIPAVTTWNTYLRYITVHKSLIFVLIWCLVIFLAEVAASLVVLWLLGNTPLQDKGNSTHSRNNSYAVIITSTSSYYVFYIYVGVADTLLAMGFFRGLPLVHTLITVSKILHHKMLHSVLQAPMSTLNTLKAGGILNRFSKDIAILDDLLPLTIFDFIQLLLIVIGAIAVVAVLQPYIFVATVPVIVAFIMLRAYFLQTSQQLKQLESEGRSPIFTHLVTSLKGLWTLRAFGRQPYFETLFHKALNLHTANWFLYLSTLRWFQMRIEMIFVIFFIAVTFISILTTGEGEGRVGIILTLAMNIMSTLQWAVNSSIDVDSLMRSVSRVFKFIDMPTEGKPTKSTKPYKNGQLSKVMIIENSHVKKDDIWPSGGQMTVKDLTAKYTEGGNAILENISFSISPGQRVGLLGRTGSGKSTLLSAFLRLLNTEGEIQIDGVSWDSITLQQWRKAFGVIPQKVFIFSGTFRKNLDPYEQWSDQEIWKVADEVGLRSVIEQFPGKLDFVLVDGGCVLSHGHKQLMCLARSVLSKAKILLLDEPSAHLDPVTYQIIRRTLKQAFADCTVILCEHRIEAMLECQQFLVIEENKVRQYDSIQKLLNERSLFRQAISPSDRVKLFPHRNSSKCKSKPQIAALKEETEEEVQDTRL
Method: The cells are cultured in 24-well plates with a dilution to 1/10 after passage. […] The operation is repeated every 30 s for 2 to 6 min. […] All the samples are counted in a gamma counter (Kontron). The precipitated proteins are solubilized in 0.1N NaOH and quantified using a calorimetric test.
(§1) The tracer contained in the cell layer at the beginning of the efflux is calculated as the sum of the samples and of the extracts counted. The efflux curves are constructed by expressing the percentage of the content remaining in the cell layer (I %) with respect to time. The stimulated or nonstimulated efflux rate constants (k, min^−1) are determined by smoothing the efflux curves to a monoexponential function I %=100*exp(−kt) using a linear regression of the neperian logarithm of the data, k is used to calculate the iodide released into the medium with respect to time. The hypothesis is made that, in the presence of a stimulator, the efflux is the sum of two iodide effluxes occurring in parallel: a basal efflux and a stimulated efflux characterized, respectively, by the constants kb and ks. The total net efflux is then described by the equation It^%=100*(1−exp(−ktt)) where kt is the sum of kb and ks. Finally, ks calculated as kt−kb is used to establish a dose-response relationship for antagonists. The data is expressed as means ±SD, and the t-test is used to determine the significances. The concentration-response curves for agonists or for antagonists are smooth using the hyperbolic equation Y=Ymax*X/(EC5C+X), where Y is the response. Y begins at the basal level and progresses to the plateau (Ymax), X is the concentration and the half-effect values (EC are calculated using GraphPad Prism v3.0 (GraphPad software)).

intracellular cAMP level = assay: total intracellular cAMP assay in CHO-CFTR(+) cells; format: cell-based, Chinese hamster; settings: 5 min, FSK 1 or 5 μM, alcohols 1 mM
Method: The CHO cells are cultured for four days in a 24-well culture plate. On the fourth day of culture, each well is rinsed twice with 500 μl of medium B, and 500 μl of this buffer containing the molecule to be tested are added to each well. After incubation at 37° C. for 5 min, the reaction is stopped by adding a cell lysis buffer. The cell lysis is verified with Trypan blue. The amount of cAMP contained in the cells is determined using the Enzyme Immuno Assay kit (Amersham Biotechnology). The cAMP level is expressed in pmol/well ±SD.

[2] = molecular target: T2, ΔF508 mutated CFTR channel (Homo sapiens, UniProt P13569, DEL508-508); assay: iodide efflux in JME/CF15 human bronchial epithelial cells from cystic fibrosis patients; format: cell-based; settings: glibenclamide 100 μM, DIDS 500 μM
T2 construct: epithelial cells extracted from respiratory airways of patients suffering from cystic fibrosis (homozygous ΔF508); endogenous in cells; host or cells: JME/CF15 human airway epithelial cells (homozygous ΔF508)
T2 sequence (P13569 with tags, fused parts or gaps DEL508-508): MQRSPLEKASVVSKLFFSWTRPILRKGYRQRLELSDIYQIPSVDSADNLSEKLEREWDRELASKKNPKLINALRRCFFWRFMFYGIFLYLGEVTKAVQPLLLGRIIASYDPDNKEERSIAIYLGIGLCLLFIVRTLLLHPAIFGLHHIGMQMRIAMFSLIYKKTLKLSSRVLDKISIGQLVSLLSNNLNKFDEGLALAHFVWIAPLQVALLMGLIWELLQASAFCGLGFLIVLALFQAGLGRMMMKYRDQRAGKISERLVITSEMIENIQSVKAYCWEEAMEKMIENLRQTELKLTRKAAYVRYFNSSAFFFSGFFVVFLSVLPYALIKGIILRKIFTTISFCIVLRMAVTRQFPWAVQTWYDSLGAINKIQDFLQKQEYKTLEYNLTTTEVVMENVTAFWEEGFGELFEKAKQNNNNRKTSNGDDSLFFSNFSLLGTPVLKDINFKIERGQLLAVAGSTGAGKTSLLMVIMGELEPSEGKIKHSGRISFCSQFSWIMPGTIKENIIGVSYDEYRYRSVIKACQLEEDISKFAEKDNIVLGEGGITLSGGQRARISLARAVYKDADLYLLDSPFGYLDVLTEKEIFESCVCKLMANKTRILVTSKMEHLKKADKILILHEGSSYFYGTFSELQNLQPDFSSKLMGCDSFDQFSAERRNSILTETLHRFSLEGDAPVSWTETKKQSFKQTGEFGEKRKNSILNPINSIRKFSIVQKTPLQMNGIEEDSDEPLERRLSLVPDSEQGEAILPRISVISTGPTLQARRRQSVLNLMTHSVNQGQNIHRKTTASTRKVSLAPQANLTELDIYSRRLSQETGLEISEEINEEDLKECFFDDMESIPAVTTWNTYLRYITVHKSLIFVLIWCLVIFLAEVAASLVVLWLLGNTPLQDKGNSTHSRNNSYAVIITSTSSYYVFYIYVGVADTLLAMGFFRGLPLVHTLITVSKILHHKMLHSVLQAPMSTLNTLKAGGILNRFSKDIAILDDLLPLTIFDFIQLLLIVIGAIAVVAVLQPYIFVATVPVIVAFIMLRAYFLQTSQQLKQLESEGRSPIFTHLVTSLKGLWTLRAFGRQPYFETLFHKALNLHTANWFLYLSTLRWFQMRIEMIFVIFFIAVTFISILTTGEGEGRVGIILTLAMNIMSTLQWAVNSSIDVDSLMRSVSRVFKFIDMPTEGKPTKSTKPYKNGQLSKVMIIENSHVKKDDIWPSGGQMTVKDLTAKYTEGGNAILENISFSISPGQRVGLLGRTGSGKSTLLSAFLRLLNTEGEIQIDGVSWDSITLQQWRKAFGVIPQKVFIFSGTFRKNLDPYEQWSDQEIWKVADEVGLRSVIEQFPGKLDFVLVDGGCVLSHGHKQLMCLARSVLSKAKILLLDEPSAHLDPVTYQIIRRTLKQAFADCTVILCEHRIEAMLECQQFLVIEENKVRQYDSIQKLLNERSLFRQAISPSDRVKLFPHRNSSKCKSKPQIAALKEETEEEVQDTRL
Method: (§2) The CFTR studies are also carried out on Calu-3 cells (ATCC No. HTB-55), which are human pulmonary epithelial cells endogenously expressing the CFTR channel. These cells are cultured under the same culture conditions as the CHO cells. The study of the mutated CFTR channel is carried out on JME/CF15 cells, which are epithelial cells extracted from respiratory airways of patients suffering from cystic fibrosis (homozygous ΔF508) (Jefferson et al., 1990). These cells therefore express the ΔF508 mutated CFTR channel. These cells are cultured under the same conditions as above, but the culture medium is supplemented with a hormone mixture containing: adenine (180 μM), insulin (5 μg/ml), transferrin (5 μg/ml), hydrocortisone (1.1 μM), triiodothyronine (2 nM), epinephrine (5.5 μM), epidermal growth factor (1.64 nM).
(§3) This technique makes it possible to follow the kinetics of exit of the ^125I radioactive iodide. The cells are cultured in 24-well plates with a dilution to 1/10 after passage. On the fourth day of culture, the drugs to be tested are dissolved in solution according to the desired concentration, at 37° C., in medium B, at pH 7.4, containing, in mM: 137 NaCl, 5.36 KCl, 0.8 mM MgCl2, 1.8 mM CaCl2, 5.5 glucose and 10 HEPES-NaOH. The wells are washed 4 times with 500 μl of medium B. The solution is subsequently replaced with 500 μl of loading solution containing 1 μM KI and 0.5 μCi of ^125INa/ml for 30 min. The kinetics of exit of ^125I are determined after having eliminated the loading solution and washed the wells 4 times with 500 μl of medium B. For the ^125I exit kinetics, 500 μl of medium B containing or not containing the molecules to be tested are incubated for 30 sec in the wells and recovered in a hemolysis tube, so as to be replaced with 500 μl of medium B containing or not containing the molecules to be tested. The operation is repeated every 30 s for 2 to 6 min. At the end of the efflux, the intracellular ions are extracted by adding 1 ml of trichloroacetic acid (7.5%) to the cell layer. All the samples are counted in a gamma counter (Kontron). The precipitated proteins are solubilized in 0.1N NaOH and quantified using a calorimetric test.
as §1, with “The concentration-response curves for agonists or for antagonists are smooth using the hyperbolic equation Y=Ymax*X/(EC5C+X), where Y is the response.” left out

[3] = molecular target: T3, human CFTR channel endogenously expressed in Calu-3 (Homo sapiens, UniProt P13569); assay: iodide efflux in Calu-3 human bronchial epithelial cells; format: cell-based; settings: Calu-3; 1 hour treatment; glibenclamide 100 μM, DIDS 500 μM
T3 construct: human pulmonary epithelial cells endogenously expressing the CFTR channel; host or cells: Calu-3 human pulmonary epithelial cells
T3 sequence (P13569 whole entry): as the sequence (P13569 whole entry) above
Method: as §2, §3
as §1, with “The concentration-response curves for agonists or for antagonists are smooth using the hyperbolic equation Y=Ymax*X/(EC5C+X), where Y is the response.” left out

CFTR channel [4] = molecular target: T1, CFTR channel; assay: whole-cell patch-clamp in CHO-CFTR(+) cells; format: cell-based; set-up: expressed in transfected cells; host or cells: CHO (Chinese hamster ovary) cells, CHO-CFTR(+); settings: glibenclamide 100 μM
Text: The patch-clamp technique consists in applying a glass pipette or a glass microelectrode to the surface of the cell. By applying slight touch, it is possible to cause the membrane to adhere to the glass. A small piece of membrane (patch) is thus isolated at the end of the pipette. This is the principle of patch-clamp (O. P. Hamill et al., Pflügers Arch., 1981, 391, 85-100; R. Penner, A Practical Guide to Patch Clamping, 1995, In Single Channel Recording, 2nd edition (Eds. B. Sakmann et al.) Plenum Press, New York, 3-30). To do this, the patch-clamp pipette must have a tip of the order of 1 μm in diameter and a resistance of the order of 1-5 MΩ. The resistance of a pipette or of a microelectrode makes it possible to assess the fineness of the tip: the greater the resistance, the finer the tip or the more the electrode is blocked. […] Interactions between the membrane and the glass will form, aided by a slight suction or negative pressure in the pipette. The quality of this interaction (or sealing) is also assessed by measuring the resistance between the glass and the membrane. To measure overall currents in the whole cell configuration, a sealing resistance of 1 GΩ is sufficient.
More specifically, culture dishes (cell support) are placed in an experimentation cell (volume 1 ml) on the platform of an inverted microscope (Nikon) equipped with phase-contrast lighting. The whole-cell configuration is used for recording the cell currents (Hamill et al., 1981). The experiments are carried out at ambient temperature (20-22° C.). The currents are amplified with an Axopatch 200B amplifier (Axon Instrument Ltd) having a 2-5 kHz low-pass filter (Bessel 6-pole filter), and recorded on the hard disk of a PC after digitization at 10-25 kHz. The pipettes are produced from glass tubes 1 mm in diameter (Clark Electromedical Instrument) in four steps with a horizontal drawing device (Bruwn Flaming 97, CA).
The pipettes, filled with an intracellular solution containing, in mM: 60 KCl; 80 NMDG ([…]); 10 HEPES; 5 EGTA; 1 CaCl2; 4 MgATP; 0.2 Na3GTP; pH 7.4, titrated with KOH), having a resistance of 5 MΩ. The potentials are expressed as the difference between the potential of the patch electrode and that of the bath. In the whole-cell configuration, they represent the membrane potential of the cell. The junction potentials that form between the recording electrode and the extracellular medium are eliminated before the contact of the electrode with the cell. […] The current-voltage relationships in the stationary state are determined using slow voltage ramps (20 mV/.s) under an imposed voltage condition. […]

CHO-CFTR(-) cells = assay: 125I iodide efflux in CHO-CFTR(-) control cells that do not express CFTR; format: cell-based, Chinese hamster; settings: octan-1-ol 0.1 to 5 mM, FSK 5 μM, A23187 2 μM

activation of CFTR (125I efflux), in words (CFTR channel [1]; CHO-CFTR(+) cells) | Compound | order of activation of CFTR by n-alkanols (CFTR channel [1]) | other results
significantly activates the CFTR channel | CCCCCCCCCCO [decan-1-ol] | hexan-1-ol<heptan-1-ol<octan-1-ol<octan-2-ol<decan-1-ol | –
significantly activates the CFTR channel | CCCCCCO [hexan-1-ol] | hexan-1-ol<heptan-1-ol<octan-1-ol<octan-2-ol<decan-1-ol | effect on intracellular cAMP level (intracellular cAMP level): neither octan-1-ol, hexan-1-ol or ethanol modifies the basal cAMP level
do not activate the CFTR channel | CCO [ethanol, reference compound] | – | effect on intracellular cAMP level (intracellular cAMP level): neither octan-1-ol, hexan-1-ol or ethanol modifies the basal cAMP level
– | O=S(=O)(O)c1cc(N=C=S)ccc1C=Cc1ccc(N=C=S)cc1S(=O)(=O)O [DIDS, 4,4′-diisothiocyanatostilbene-2,2′-disulfonic acid, reference compound] | – | effect of inhibitor on CFTR-ΔF508 activation by octan-1-ol [2]: insensitive; effect of inhibitor on octan-1-ol-activated efflux [3]: has no effect
– | COc1ccc(Cl)cc1C(=O)NCCc1ccc(S(=O)(=O)NC(=O)NC2CCCCC2)cc1 [glibenclamide, reference compound] | – | effect of inhibitor on CFTR-ΔF508 activation by octan-1-ol [2]: inhibited; effect of inhibitor on activated 125I efflux (CFTR channel [1]): completely inhibited; effect of inhibitor on octan-1-ol-activated efflux [3]: strongly blocked; effect of glibenclamide on FSK- or octan-1-ol-induced current (CFTR channel [4]): completely inhibited
– | O=S(=O)(NCCNC/C=C/c1ccc(Br)cc1)c1cccc2cnccc12 [H-89, reference compound] | – | effect of inhibitor on activated 125I efflux (CFTR channel [1]): inhibited
increase in activation of CFTR | CCCCCCCO [heptan-1-ol] | hexan-1-ol<heptan-1-ol<octan-1-ol<octan-2-ol<decan-1-ol | –
– | C=C[C@@]1(C)CC(=O)[C@]2(O)[C@@]3(C)[C@@H](O)CCC(C)(C)[C@@H]3[C@H](O)[C@H](OC(C)=O)[C@@]2(C)O1 [FSK, forskolin, reference compound] | – | pEC50 (CFTR channel [1]; EC50 of activation of CFTR (125I efflux rate constant), CHO-CFTR(+) cells, FSK 0.1 to 5 μM): ~6.30
also activates the CFTR protein | CCCCCCC(C)O (stereo not drawn) [octan-2-ol] | hexan-1-ol<heptan-1-ol<octan-1-ol<octan-2-ol<decan-1-ol | –

Compound | activation of CFTR (125I efflux), in words (CFTR channel [1]; CHO-CFTR(+) cells) | order of activation of CFTR by n-alkanols (CFTR channel [1]) | other results
butan-1-ol [reference compound] | not significantly different from the unstimulated efflux | – | activation of CFTR (125I efflux), in words (CFTR channel [1]; CHO-CFTR(+) cells, listed as butanol): do not activate the CFTR channel
CO [methanol, reference compound] | not significantly different from the unstimulated efflux | – | –
CNc1ccc2oc(C[C@H]3O[C@@]4(CC[C@H]3C)O[C@H]([C@H](C)C(=O)c3ccc[nH]3)[C@H](C)C[C@H]4C)nc2c1C(=O)O [A23187, reference compound] | has no effect | – | effect on basal level of 125I efflux in cells not expressing CFTR (CHO-CFTR(-) cells): has no effect
